Values after ≈ are worked out from the molar mass of the structure shown. Where a SMILES comes first, the peptide text is derived from it. Bridges are numbered along the chain shown (N, C = ends). [ ]: non-standard residue; d: D form. The star is where a group is joined. Tetradecanoyl(3R-OH) = CCCCCCCCCCC[C@@H](O)CC(=O)*; Asp(3S-OH) = N[C@H](C(=O)O)[C@H](O)C(=O)O; Thr(4-Cl) = N[C@H](C(=O)O)[C@H](O)CCl; aThr = C[C@H](O)[C@H](N)C(=O)O; dDab = NCC[C@@H](N)C(=O)O; Dab = NCC[C@H](N)C(=O)O; Dhb = C/C=C(\N)C(=O)O

Series [1] deals with Mus musculus. Briefly: Compound (at 20 mg/kg) was tested to induce tail vein irritation in mice; Negative. More on the design: dose 20 mg/kg. The series is classed as ADME, organism-based. Conditions: in vivo.
A further series has as its system Aspergillus fumigatus. Briefly: In vitro minimum inhibitory concentration against Aspergillus fumigatus. Format: functional.
In a further series the test system is Candida albicans. Briefly: In vitro minimum inhibitory concentration against Candida albicans. Format: functional.
Another series deals with Cryptococcus neoformans. Briefly: In vitro minimum inhibitory concentration against Cryptococcus neoformans. The series is classed as functional.
In series [2] the test system is Mus musculus. Briefly: Compound (at 20 mg/kg) was tested to induce tail vein irritation in mice; Positive. The series is classed as ADME, organism-based. Conditions: in vivo. The arrangement: dose 20 mg/kg.

In the case of `C/C=C1\NC(=O)[C@H]([C@H](C)O)NC(=O)[C@H](CCN)NC(=O)[C@H](CCCCN)NC(=O)[C@H]2CC(=O)O[C@H](C(=O)O)[C@H](NC1=O)C(=O)N[C@@H]([C@H](O)CCl)C(=O)OC[C@H](NC(=O)C[C@H](O)CCCCCCCCCCC)C(=O)N[C@H](CCN)C(=O)N2`, in the series on Mus musculus [1], the Tail vein toxicity entry was “Negative”. In addition, the MIC in the series on Aspergillus fumigatus was over 20 µg/mL; in the series with Candida albicans, 5 µg/mL (≈ 4.2 µM); against Cryptococcus neoformans, 0.625 µg/mL (≈ 0.525 µM).

Consider `C/C=C1\NC(=O)[C@H]([C@H](C)O)NC(=O)[C@H](CCN)NC(=O)[C@H](CCCCN)N2C(=O)C[C@H](NC(=O)[C@@H](CCN)NC(=O)[C@@H](NC(=O)C[C@H](O)CCCCCCCCCCC)COC(=O)/C(=C\CO)NC(=O)[C@H]([C@H](O)C(=O)O)NC1=O)C2=O`, for which the MIC is over 20 µg/mL against Aspergillus fumigatus, over 20 µg/mL against Candida albicans and 20 µg/mL (≈ 17.3 µM) with Cryptococcus neoformans.

Take `C/C=C1\NC(=O)[C@H]([C@H](C)O)NC(=O)[C@H](CCN)NC(=O)[C@H](CCCCN)NC(=O)[C@H](CC(=O)O)NC(=O)[C@@H](CCN)NC(=O)[C@@H](NC(=O)C[C@H](O)CCCCCCCCCCC)COC(=O)[C@H]([C@H](O)CCl)NC(=O)[C@H]([C@H](O)C(=O)O)NC1=O` [PSEUDOMYCIN B] ({Tetradecanoyl(3R-OH)}-S[dDab]DK[Dab][aThr][Dhb][Asp(3S-OH)][Thr(4-Cl)]; ester 1-C): in the series on Mus musculus [2], the Tail vein toxicity entry is “POSITIVE”. Further, the MIC is 20 µg/mL (≈ 16.6 µM) against Aspergillus fumigatus, 0.312 µg/mL (≈ 0.258 µM) in the series on Candida albicans and under 0.01 µg/mL with Cryptococcus neoformans.

For the compound `C/C=C1\NC(=O)[C@H]([C@@H](C)O)NC(=O)[C@@H](CCN)NC(=O)[C@H](CCCCN)N2C(=O)C[C@@H](NC(=O)[C@H](CCN)NC(=O)C(NC(=O)C[C@@H](O)CCCCCCCCCCC)COC(=O)[C@@H]([C@@H](O)CCl)NC(=O)[C@H]([C@H](O)C(=O)O)NC1=O)C2=O` (stereo not given in full), the Tail vein toxicity result in the series with Mus musculus [1] is given as “Negative”. Moreover, the MIC with Aspergillus fumigatus is over 20 µg/mL; in the series on Candida albicans, over 20 µg/mL; against Cryptococcus neoformans, 10 µg/mL (≈ 8.41 µM).

The values are drawn from ChEMBL document CHEMBL1133335, “Serendipitous synthesis of novel dehydro- and dechloro-pseudomycin B (PSB) derivatives” (Bioorg Med Chem Lett, 2000).
